Measured values from publication PMC8303725 (International Journal of Molecular Sciences, 2021).
pIC50: −log10 of the molar value. Like-named read-outs stand apart in the source and are kept apart here.

What was measured:
[1] = target: T1, Human Topo I (topoisomerase I) (Homo sapiens, UniProt P11387); assay: Topo I DNA relaxation fluorescence plate assay (Inspiralis); format: biochemical
T1 construct: gene TOP1
T1 sequence (P11387 2-765): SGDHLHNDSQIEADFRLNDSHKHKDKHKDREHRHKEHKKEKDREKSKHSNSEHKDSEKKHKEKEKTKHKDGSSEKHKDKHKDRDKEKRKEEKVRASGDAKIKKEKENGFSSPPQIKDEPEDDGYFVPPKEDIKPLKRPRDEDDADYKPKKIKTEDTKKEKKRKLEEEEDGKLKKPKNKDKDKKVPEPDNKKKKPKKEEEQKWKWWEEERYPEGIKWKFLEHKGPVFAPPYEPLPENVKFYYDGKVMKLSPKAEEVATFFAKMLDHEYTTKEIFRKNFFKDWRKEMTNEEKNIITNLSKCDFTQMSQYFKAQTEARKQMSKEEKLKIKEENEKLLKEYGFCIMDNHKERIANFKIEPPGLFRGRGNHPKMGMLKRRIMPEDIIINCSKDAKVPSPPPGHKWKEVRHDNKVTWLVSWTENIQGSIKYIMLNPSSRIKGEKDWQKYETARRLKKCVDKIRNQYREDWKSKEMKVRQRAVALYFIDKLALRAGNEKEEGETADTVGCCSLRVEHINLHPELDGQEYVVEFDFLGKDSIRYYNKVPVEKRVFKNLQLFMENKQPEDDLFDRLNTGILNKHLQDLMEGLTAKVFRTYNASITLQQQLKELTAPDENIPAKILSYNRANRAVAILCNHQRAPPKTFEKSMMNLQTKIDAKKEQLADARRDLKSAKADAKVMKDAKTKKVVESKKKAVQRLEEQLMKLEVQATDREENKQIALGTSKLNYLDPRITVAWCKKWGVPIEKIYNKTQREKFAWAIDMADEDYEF

[2] = tested on: nicked decamer 1 (nicked DNA duplex with PEG(6) tethers) (DNA, duplex, nick between T5 and G6; PEG6 tether at both ends of the duplex, joining the strands into one chain) GCGTT/GTCGC/GCGACAACGC; assay: MALDI-MS of reaction product; settings: 25 mM NaCl, 25 mM K3PO4; covalent; biohybrid peak m/z 7290.9; pH 6
[3] = tested on: nicked decamer 1 (nicked DNA duplex with PEG(6) tethers) (DNA, duplex, nick between T5 and G6; PEG6 tether at both ends of the duplex, joining the strands into one chain) GCGTT/GTCGC/GCGACAACGC; assay: DOSY NMR; settings: 25 mM NaCl, 25 mM K3PO4; D2O, pH 6, 25 °C; filtered mother liquor; equal diffusion coefficients; bound species may include bioconjugate, 4, SN38
[4] = tested on: nicked decamer 1 (nicked DNA duplex with PEG(6) tethers) (DNA, duplex, nick between T5 and G6; PEG6 tether at both ends of the duplex, joining the strands into one chain) GCGTT/GTCGC/GCGACAACGC; assay: 1H/13C HSQC with 24-13C compound; settings: 25 mM NaCl, 25 mM K3PO4; covalent; pH 6; 298 K; site tentatively NH2 of a base in nick

| pIC50 ([1]; read-out: IC50) | SMILES | pIC50 [1] | binding [2] | binding [3] | binding [4] |
| --- | --- | --- | --- | --- | --- |
|  | CCc1c2c(nc3ccc(O)c(CNC)c13)-c1cc3c(c(=O)n1C2)COC(=O)[C@]3(O)CC [compound 2, 7-ethyl-9-(N-methylamino)methyl-10-hydroxycamptothecin] | 4.00 | yes |  |  |
|  | CCc1c2c(nc3ccc(O)c(CN4CCOCC4)c13)-c1cc3c(c(=O)n1C2)COC(=O)[C@]3(O)CC [compound 3, 7-ethyl-9-(N-morpholino)methyl-10-hydroxycamptothecin] | 4.31 |  | yes | yes |
| 4.39 | CCc1c2c(nc3ccc(O)cc13)-c1cc3c(c(=O)n1C2)COC(=O)[C@]3(O)CC [SN38] |  |  |  |  |
